Results on four molecules are retold here after patent US20250034216A1, “STEREOSELECTIVE COVALENT LIGANDS FOR ONCOGENIC AND IMMUNOLOGICAL PROTEINS” (The Scripps Research Institute, priority 2021, published 2025).

One test has as its target T1, BCKDK_C111 (Homo sapiens, UniProt O14874).
T1 construct: endogenous in cells; host or cells: 22Rv1
As to the kind of experiment: IA-DTB cysteine engagement. In kind it is binding. Particulars: 22Rv1 cells, 20 μM probe, 1 h, relative to DMSO. In short, it runs like this: (§1)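 First, cells are exposed to electrophilic probes in situ. Next, lysates are labeled with IA-DTB (1 h, ambient temperature), reduced, alkylated and trypsin-digested. Then, IA-DTB peptides are enriched on streptavidin, TMT-labeled and analyzed, with ratios taken against DMSO channels.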

The next test addresses T2, RTN4_C1101 (Homo sapiens, UniProt Q9NQC3).
T2 construct: endogenous in cells; host or cells: 22Rv1
T2 sequence (Q9NQC3 1-1192): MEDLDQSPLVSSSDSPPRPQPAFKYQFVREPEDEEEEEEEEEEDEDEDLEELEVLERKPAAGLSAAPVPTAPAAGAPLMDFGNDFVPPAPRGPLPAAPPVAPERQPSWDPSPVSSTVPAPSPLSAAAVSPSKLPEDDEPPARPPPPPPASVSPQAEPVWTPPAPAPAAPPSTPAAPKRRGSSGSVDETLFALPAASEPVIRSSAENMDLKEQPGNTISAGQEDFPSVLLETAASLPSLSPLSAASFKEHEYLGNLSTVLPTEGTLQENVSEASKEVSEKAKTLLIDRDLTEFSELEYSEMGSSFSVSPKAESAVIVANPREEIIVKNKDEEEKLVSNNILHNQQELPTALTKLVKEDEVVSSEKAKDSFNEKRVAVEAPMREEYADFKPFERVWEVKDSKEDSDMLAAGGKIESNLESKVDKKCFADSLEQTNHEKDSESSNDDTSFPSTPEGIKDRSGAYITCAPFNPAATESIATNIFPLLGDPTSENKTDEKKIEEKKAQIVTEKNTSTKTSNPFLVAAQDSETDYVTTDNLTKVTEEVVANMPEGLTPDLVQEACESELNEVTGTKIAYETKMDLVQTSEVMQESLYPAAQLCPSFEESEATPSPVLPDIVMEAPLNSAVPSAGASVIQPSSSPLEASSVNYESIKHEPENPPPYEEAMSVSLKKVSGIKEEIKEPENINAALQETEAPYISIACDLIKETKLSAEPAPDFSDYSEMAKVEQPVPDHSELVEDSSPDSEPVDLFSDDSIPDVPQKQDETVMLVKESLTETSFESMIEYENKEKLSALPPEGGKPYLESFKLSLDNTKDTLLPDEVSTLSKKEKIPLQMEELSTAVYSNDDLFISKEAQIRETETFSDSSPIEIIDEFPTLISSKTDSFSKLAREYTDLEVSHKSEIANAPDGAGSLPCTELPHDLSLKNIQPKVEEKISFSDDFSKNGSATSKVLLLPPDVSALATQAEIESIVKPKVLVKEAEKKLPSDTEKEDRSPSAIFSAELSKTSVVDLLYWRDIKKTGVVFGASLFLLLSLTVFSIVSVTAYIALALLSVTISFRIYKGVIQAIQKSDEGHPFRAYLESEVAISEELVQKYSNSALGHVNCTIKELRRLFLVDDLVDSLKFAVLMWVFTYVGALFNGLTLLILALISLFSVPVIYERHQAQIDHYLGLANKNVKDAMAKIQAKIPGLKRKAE
Kind of test: IA-DTB cysteine engagement. In kind it is binding. Particulars: 22Rv1 cells, 20 μM probe, 1 h, relative to DMSO. In short, it runs like this:
as §1

On to `C=CC(=O)N1C[C@H](c2ccc(Br)cc2)[C@H]1C(=O)Nc1cccc2cccnc12` [MY-3A, (2S,3S)-1-acryloyl-3-(4-bromophenyl)-N-(quinolin-8-yl)azetidine-2-carboxamide], for which the “% engagement BCKDK_C111” value on BCKDK_C111 is 19.5%. Moreover, the “% engagement RTN4_C1101” value at RTN4_C1101 amounted to 91.5%.
The like results for `C=CC(=O)N1C[C@@H](c2ccc(Br)cc2)[C@H]1C(=O)Nc1cccc2cccnc12` [MY-1A, (2S,3R)-1-acryloyl-3-(4-bromophenyl)-N-(quinolin-8-yl)azetidine-2-carboxamide] were, in that order, 17.25% and 85%.
Take `C=CC(=O)N1C[C@H](c2ccc(Br)cc2)[C@@H]1C(=O)Nc1cccc2cccnc12` [MY-1B, (2R,3S)-1-acryloyl-3-(4-bromophenyl)-N-(quinolin-8-yl)azetidine-2-carboxamide]: the “% engagement BCKDK_C111” value on BCKDK_C111 is 14.5%. Also, on RTN4_C1101, the “% engagement RTN4_C1101” value amounted to 87.5%.
Regarding `C=CC(=O)N1C[C@H](c2ccc(Br)cc2)[C@H]1C(=O)Nc1cccc2cccnc12` [MY-3B, (2S,3S)-1-acryloyl-3-(4-bromophenyl)-N-(quinolin-8-yl)azetidine-2-carboxamide], the “% engagement BCKDK_C111” value at BCKDK_C111 came to 76.75%. Also, the “% engagement RTN4_C1101” value on RTN4_C1101 came out at 85%.
